Data from publication PMC8360007, “Stereoselective Access to Antimelanoma Agents by Hybridization and Dimerization of Dihydroartemisinin and Artesunic acid” (Chemmedchem, 2021).
Read-outs that look alike come from different tables or passages of the source.

Assays:
[1] = system: metastatic melanoma cancer cell line RPMI7951; assay: cell survival MTT assay on metastatic melanoma cancer cell line RPMI7951; type: cell-based; details: Homo sapiens, RPMI-7951, read-out: IC50±SD RPMI7951
Procedure: (§1) The anticancer‐activity of DHA and ART hybrids 7‐β, 12‐β, 13‐α, 14‐α, 15‐α, and 16‐α, and of DHA and ART dimers 17‐α,α, 18‐α,α, 19‐β,β, 20‐α,α, 21‐α,α and 22‐α,α, was evaluated by the cell survival MTT assay on metastatic melanoma cancer cell line RPMI7951. Artemisinin 1, DHA 2, ART 3, hybrids 5–7, dimer 8, and commercially available drug paclitaxel (Taxol) were used as reference. In addition, data were compared with experiments performed on normal human primary fibroblast cell line (C3PV). Table 1 reports the IC50 (half‐maximal inhibitory concentration) and CC50 (half‐maximal cytotoxic concentration) values of the tested compounds.
(§2) The primary human fibroblast C3PV cell line was treated according to Botta et al.[27] Metastatic melanoma cell line (RPMI7951) was grown in Eagle's Minimum Essential Medium (EMEM) containing 15 % and 10 % FBS respectively, in addition to penicillin (100 U/ml) and streptomycin (1 mg/ml). The cell lines were maintained at 37 °C in a humidified atmosphere (95 %) in the presence of 5.0 % CO2. Prostate cancer (PC3) and breast cancer (MDA‐MB‐231) cell lines were raised in DMEM/F12 and RMPI1640 medium, respectively. To the medium was added 10 % FBS, 1 mM Glutammine and 40 μg/ml of Gentamicin. All cell lines were mantained at 37 °C in a humidified atmosphere (95 %) in the presence of 5.0 of CO2.
To study the effect of artemisinin and its derivatives on cell viability C3PV, RPMI7951, PC3, MDA‐MB‐231 cell lines were seeded in 96‐well plates (6000 cells/well in 100 μl medium) and incubated overnight to allow cell adherence. After, the medium was replaced with fresh medium containing the appropriate dose of compound. Artemisinin and its derivatives were used in a range of […] for 24 h. The analyses of cell viability were done at the end of treatment. […]
(§3) The CC50 and IC50 values were determined by non‐linear regression using the program graphpad prism 6.
(§4) Cell viability was evaluated using MTT cell proliferation assay. Briefly, after incubation for 3 h at 37 °C with MTT (0.5 mg/ml) the supernatant was replaced with 100 μl of a lysis solution containing 10 % SDS, 0.6 % Acetic acid in DMSO to dissolve the formazan crystals. Optical density measurements were performed with a scanning spectrophotometer DTX880 Multimode Detector (Beckman Coulter) using a 630 nm (background) and a 570 nm filter.

[2] = MTT cell viability (cytotoxicity) on normal human primary fibroblast C3PV; type: cell-based
Procedure: as §1, §2
(§5) To study the effect of artemisinin and its derivatives on cell viability C3PV, RPMI7951, PC3, MDA‐MB‐231 cell lines were seeded in 96‐well plates (6000 cells/well in 100 μl medium) and incubated overnight to allow cell adherence. After, the medium was replaced with fresh medium containing the appropriate dose of compound. […] The analyses of cell viability were done at the end of treatment. The assays were performed in quadruplicate for both treatments.
as §3, §4

[3] = system: human prostate (PC3) cancer cell line; assay: MTT cell viability on prostate cancer PC3 cell line; type: cell-based; details: PC-3, triplicate, read-out: IC50±SD PC3
Procedure: (§6) The effect of dimers 20–22‐α,α was further evaluated against other tumour types, such as human prostate and breast cancers in PC3 and MDA‐MB‐231 cell lines, respectively (Table 2).
as §2, §5, §4

[4] = system: human breast (MDA‐MB‐231) cancer cell line; assay: MTT cell viability on breast cancer MDA‐MB‐231 cell line; type: cell-based; details: triplicate, read-out: IC50±SD MDA‐MB‐231
Procedure: as §6, §2, §5, §4

[5] = stability in assay medium by HPLC; type: physicochemical; details: 24 and 48 hours, 25 °C, pH=7, in comparison with artesunic acid 3
[6] = system: metastatic melanoma cancer cell line RPMI7951; design: method as in PMID 31956771; details: cited from earlier work
[7] = system: normal human primary fibroblast cell line (C3PV); design: method as in PMID 31956771; details: cytotoxicity data from ref. 12; read-out: CC50±SD C3PV; cited from earlier work
[8] = MTT cell viability (cytotoxicity) on normal human primary fibroblast C3PV; type: cell-based; details: C3PV normal primary fibroblast cells, 24 h treatment, triplicate, read-out: CC50±SD C3PV
[9] = MTT, 24 h treatment, triplicate
[10] = antimelanoma data from ref. 12, read-out: IC50±SD RPMI7951

In the case of `C[C@H]1[C@@H](O)O[C@@H]2O[C@@]3(C)CC[C@H]4[C@H](C)CC[C@@H]1[C@@]24OO3` [Compound 2, dihydroartemisinin], the IC50 [1, 9] is reported as 910 ± 450 nM and the CC50 at 24 h [2] is reported as 680 ± 190 nM.
`C[C@H]1[C@H](OC(=O)CCC(=O)Oc2ccc(CO)cc2)O[C@@H]2O[C@@]3(C)CC[C@H]4[C@H](C)CC[C@@H]1[C@@]24OO3` [15‐α] gave an IC50 [1, 9] of 2500 ± 50 nM and a CC50 at 24 h [2] of 55200 ± 7330 nM.
With `COC(=O)C(Cc1ccc(OC(=O)CCC(=O)OC2OC3OC4(C)CCC5C(C)CCC(C2C)C35OO4)cc1)NC(=O)CCC(=O)OC1OC2OC3(C)CCC4C(C)CCC(C1C)C24OO3` (stereo not drawn) [21‐α,α] the IC50 [1, 9] was 1760 ± 30 nM, the IC50 ([1]; in absence of DFO) was 1760 ± 30 nM and the CC50 at 24 h [2] was > 300000 nM. The IC50 [3] was 3040 ± 340 nM and the IC50 [4] was 3080 ± 850 nM.
Work on `C[C@H]1[C@@H](OCCCCO[C@H]2O[C@@H]3O[C@@]4(C)CC[C@H]5[C@H](C)CC[C@@H]([C@H]2C)[C@@]35OO4)O[C@@H]2O[C@@]3(C)CC[C@H]4[C@H](C)CC[C@@H]1[C@@]24OO3` [19‐β,β] yielded an IC50 [1, 9] of 3600 ± 950 nM and a CC50 at 24 h [2] of 5700 ± 790 nM.
`COC(=O)C(Cc1ccc(O)cc1)NC(=O)CCC(=O)O[C@@H]1O[C@@H]2O[C@@]3(C)CC[C@H]4[C@H](C)CC[C@@H]([C@H]1C)[C@@]24OO3` (stereo partly drawn) [14‐α] showed an IC50 [1, 9] of 1300 ± 70 nM and a CC50 at 24 h [2] of 6380 ± 1500 nM.
Compound `C[C@H]1[C@H](OC(=O)c2ccccc2C(=O)O)O[C@@H]2O[C@@]3(C)CC[C@H]4[C@H](C)CC[C@@H]1[C@@]24OO3` [16‐α] has an IC50 [1, 9] of 4600 ± 30 nM and a CC50 at 24 h [2] of 8140 ± 850 nM.
With `CC1CCC2C(C)C(OC(=O)CCC(=O)OCc3ccc(OC(=O)CCC(=O)OC4OC5OC6(C)CCC7C(C)CCC(C4C)C57OO6)cc3)OC3OC4(C)CCC1C32OO4` (stereo not drawn) [Compound 22‐α,α] the IC50 [1, 9] was 50 ± 20 nM, the IC50 ([1]; in absence of DFO) was 50 ± 20 nM and the CC50 at 24 h [2] was > 300000 nM. The IC50 [3] was 3100 ± 190 nM, the IC50 [4] was 2400 ± 950 nM and the “stability after exposition to assay medium (HPLC)” value [5] was “good stability”.
For `CC1CCC2C(C)C(OC(=O)CCC(=O)OCCc3ccc(OC(=O)CCC(=O)OC4OC5OC6(C)CCC7C(C)CCC(C4C)C57OO6)cc3)OC3OC4(C)CCC1C32OO4` (stereo not drawn) [Compound 8], the IC50 [6, 10] is listed as 490 ± 50 nM, the IC50 ([6]; introduction, earlier library, read-out: IC50 against RPMI‐7951 cell line) is listed as 1370 ± 130 nM and the CC50 [7] is listed as 6100 ± 3740 nM.
In the case of `CC1CCC2C(C)C(Oc3ccc(CCO)cc3)OC3OC4(C)CCC1C32OO4` (stereo not drawn) [7‐β], the IC50 [1, 9] is reported as 200 ± 10 nM and the CC50 at 24 h [2] is reported as 1140 ± 450 nM.
For `C[C@@H]1CC[C@H]2[C@@H](C)C(OC(=O)CCC(=O)OCCc3ccc(O)cc3)O[C@@H]3O[C@@]4(C)CC[C@@H]1[C@]32OO4` (stereo partly drawn) [Compound 6], the IC50 [6, 10] is given as 8340 ± 3060 nM and the CC50 [7] is given as > 300000 nM.
Work on `C[C@H]1[C@H](OC(=O)c2ccccc2C(=O)O[C@@H]2O[C@@H]3O[C@@]4(C)CC[C@H]5[C@H](C)CC[C@@H]([C@H]2C)[C@@]35OO4)O[C@@H]2O[C@@]3(C)CC[C@H]4[C@H](C)CC[C@@H]1[C@@]24OO3` [18‐α,α] yielded an IC50 [1, 9] of 10800 ± 1600 nM and a CC50 at 24 h [2] of 8000 ± 100 nM.
With `C[C@@H]1CC[C@H]2[C@@H](C)C(=O)O[C@@H]3O[C@@]4(C)CC[C@@H]1[C@]32OO4` [Compound 1, artemisinin] the IC50 [1, 9] was 3620 ± 990 nM and the CC50 at 24 h [8] was > 300000 nM.
In the case of `C[C@H]1[C@H](OC(=O)CCC(=O)O)O[C@@H]2O[C@@]3(C)CC[C@H]4[C@H](C)CC[C@@H]1[C@@]24OO3` [Compound 3, artesunic acid], the IC50 [1, 9] is reported as 1080 ± 560 nM and the CC50 at 24 h [8] is reported as 1680 ± 440 nM.
`C[C@H]1[C@H](OC(=O)CCC(=O)O[C@@H]2O[C@@H]3O[C@@]4(C)CC[C@H]5[C@H](C)CC[C@@H]([C@H]2C)[C@@]35OO4)O[C@@H]2O[C@@]3(C)CC[C@H]4[C@H](C)CC[C@@H]1[C@@]24OO3` [17‐α,α] showed an IC50 [1, 9] of 70 ± 10 nM and a CC50 at 24 h [8] of 250 ± 30 nM.
In the case of `C[C@@H]1CC[C@H]2[C@@H](C)C(OC(=O)CCC(=O)Oc3ccc(CCO)cc3)O[C@@H]3O[C@@]4(C)CC[C@@H]1[C@]32OO4` (stereo partly drawn) [Compound 7], the IC50 [6, 10] is given as 90 ± 30 nM and the CC50 [7] is given as 132000 ± 12600 nM.
With `CC(=O)O[C@H]1C(=O)[C@@]2(C)[C@H]([C@H](OC(=O)c3ccccc3)[C@]3(O)C[C@H](OC(=O)[C@H](O)[C@@H](NC(=O)c4ccccc4)c4ccccc4)C(C)=C1C3(C)C)[C@]1(OC(C)=O)CO[C@@H]1C[C@@H]2O` [Paclitaxel, paclitaxel, reference compound] the IC50 [1, 9] was 13 nM and the CC50 at 24 h [2] was 78900 ± 790 nM.
`CC1CCC2C(C)C(OCCc3ccc(O)cc3)OC3OC4(C)CCC1C32OO4` (stereo not drawn) [12‐β] showed an IC50 [1, 9] of 400 ± 30 nM and a CC50 at 24 h [2] of 38200 ± 2560 nM.
`CC1CCC2C(C)C(OC(=O)CCC(=O)NCCc3ccc(OC(=O)CCC(=O)OC4OC5OC6(C)CCC7C(C)CCC(C4C)C57OO6)cc3)OC3OC4(C)CCC1C32OO4` (stereo not drawn) [20‐α,α] gave an IC50 [1, 9] of 2450 ± 50 nM, an IC50 ([1]; in absence of DFO) of 2450 ± 50 nM and a CC50 at 24 h [2] of 228000 ± 1500 nM. It also gave an IC50 [3] of 2300 ± 350 nM and an IC50 [4] of 1300 ± 850 nM.
In the case of `C[C@@H]1CC[C@H]2[C@@H](C)C(OCCc3ccc(O)cc3)O[C@@H]3O[C@@]4(C)CC[C@@H]1[C@]32OO4` (stereo partly drawn) [Compound 5], the IC50 [6, 10] is given as 330 ± 80 nM and the CC50 [7] is given as 1760 ± 310 nM.
`C[C@H]1[C@H](OC(=O)CCC(=O)NCCc2ccc(O)cc2)O[C@@H]2O[C@@]3(C)CC[C@H]4[C@H](C)CC[C@@H]1[C@@]24OO3` [13‐α] gave an IC50 [1, 9] of 1700 ± 30 nM and a CC50 at 24 h [2] of 3390 ± 50 nM.
